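Protocol summary: plate cells (96-well), add compound at 5 concentrations, incubate 48 h, interpolate endpoints linearly. GI50 marks 50% less growth.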 Calls of active or inactive are those of the source. Cut-off read from the data, not from the text of the source: active = GI50 up to about 1.1 µM and inactive = higher.
Tests used:
Test in all cases: NCI tumour cell line growth inhibition, 48 h
[1] = system: IGROV-1
[2] = system: UACC-62
[3] = system: KM12
[4] = system: SF-539
[5] = system: M14
[6] = system: MDA-MB-435
[7] = system: OVCAR-8
[8] = system: SNB-75
[9] = system: T47D
[10] = system: SK-MEL-5
[11] = system: HCT-116
[12] = system: MCF7
[13] = system: SK-MEL-2
[14] = system: OVCAR-4
[15] = system: SF-295
[16] = system: PC-3
[17] = system: SN12C
[18] = system: SR
[19] = system: TK-10
[20] = system: DLD-1

Row | Structure (SMILES) | GI50 [1] | GI50 [2] | GI50 [3] | GI50 [4] | GI50 [5] | GI50 [6] | GI50 [7] | GI50 [8] | GI50 [9] | GI50 [10] | GI50 [11] | GI50 [12] | GI50 [13] | GI50 [14] | GI50 [15] | GI50 [16] | GI50 [17] | GI50 [18] | GI50 [19] | GI50 [20]
1 | CC1=C[C@@H]2[C@@H](CC(CO)=C[C@H]3[C@@H]4C(C)(C)[C@]4(OCC(C)C)[C@H](OCC(C)C)[C@@H](C)[C@]23O)C1=O | 2.01 µM (inactive) | 1.43 µM (inactive) | 2.16 µM (inactive) | 0.975 µM (active) | 1.51 µM (inactive) | 0.426 µM (active) | 1.73 µM (inactive) | 2.97 µM (inactive) | 2.16 µM (inactive) | 1.11 µM (active) | 2.04 µM (inactive) | 2.56 µM (inactive) | 2.1 µM (inactive) | 4.28 µM (inactive) | 0.92 µM (active) | 1.49 µM (inactive) | 1.73 µM (inactive) | 1.14 µM (inactive) | 1.82 µM (inactive) | –
2 | N#Cc1c(N)nc(Nc2cccc3ccccc23)c(C#N)c1C#N | > 10 µM (inactive) | 4.18 µM (inactive) | 7.53 µM (inactive) | 2.78 µM (inactive) | 6.61 µM (inactive) | 3.31 µM (inactive) | 5.25 µM (inactive) | 3.52 µM (inactive) | 8.09 µM (inactive) | 4.43 µM (inactive) | 2.54 µM (inactive) | 2.79 µM (inactive) | > 10 µM (inactive) | > 10 µM (inactive) | 3.4 µM (inactive) | 4.27 µM (inactive) | 3.42 µM (inactive) | 3 µM (inactive) | > 10 µM (inactive) | –
3 | COC(=O)C(NC(=O)c1ccccc1)C(c1c(O)cc(O)cc1O)P(=O)(OC)OC (configuration not stated) | > 100 µM (inactive) | 6.73 µM (inactive) | > 100 µM (inactive) | > 100 µM (inactive) | 48.8 µM (inactive) | – | > 100 µM (inactive) | > 100 µM (inactive) | – | > 100 µM (inactive) | > 100 µM (inactive) | – | > 100 µM (inactive) | > 100 µM (inactive) | > 100 µM (inactive) | – | > 100 µM (inactive) | > 100 µM (inactive) | > 100 µM (inactive) | > 100 µM (inactive)
4 | COC(=O)CCC(=O)c1ccc2c(c1)CCC2 | > 100 µM (inactive) | – | – | > 100 µM (inactive) | > 100 µM (inactive) | > 100 µM (inactive) | > 100 µM (inactive) | > 100 µM (inactive) | > 100 µM (inactive) | > 100 µM (inactive) | > 100 µM (inactive) | > 100 µM (inactive) | > 100 µM (inactive) | > 100 µM (inactive) | > 100 µM (inactive) | > 100 µM (inactive) | – | > 100 µM (inactive) | > 100 µM (inactive) | –
5 | O=C1C[C@@H]2[C@@H](C=CC23CCCC3)N1O | > 100 µM (inactive) | > 100 µM (inactive) | > 100 µM (inactive) | > 100 µM (inactive) | > 100 µM (inactive) | – | > 100 µM (inactive) | > 100 µM (inactive) | – | > 100 µM (inactive) | > 100 µM (inactive) | – | > 100 µM (inactive) | > 100 µM (inactive) | > 100 µM (inactive) | – | > 100 µM (inactive) | – | > 100 µM (inactive) | > 100 µM (inactive)
6 | O=S(=O)(N=S(c1ccccc1)c1ccccc1)c1ccccc1 | – | – | > 100 µM (inactive) | > 100 µM (inactive) | > 100 µM (inactive) | > 100 µM (inactive) | > 100 µM (inactive) | – | > 100 µM (inactive) | – | > 100 µM (inactive) | > 100 µM (inactive) | – | – | > 100 µM (inactive) | > 100 µM (inactive) | > 100 µM (inactive) | > 100 µM (inactive) | > 100 µM (inactive) | –
7 | N#CCCN(CCC#N)c1ccc(C(=N/c2ccc(Cl)cc2)/N=N/c2ccc(Cl)cc2)cc1 | 14.6 µM (inactive) | 10.9 µM (inactive) | 13.6 µM (inactive) | 17.8 µM (inactive) | 21.5 µM (inactive) | 18.2 µM (inactive) | 17.6 µM (inactive) | 20 µM (inactive) | 7.6 µM (inactive) | 10.1 µM (inactive) | 19 µM (inactive) | 10.1 µM (inactive) | 9.23 µM (inactive) | 17.9 µM (inactive) | 10.7 µM (inactive) | 15.6 µM (inactive) | 17.7 µM (inactive) | 18.9 µM (inactive) | 18.5 µM (inactive) | –
8 | NC(CCCCO)C(=O)O (configuration not stated) | > 100 µM (inactive) | > 100 µM (inactive) | > 100 µM (inactive) | – | > 100 µM (inactive) | > 100 µM (inactive) | > 100 µM (inactive) | > 100 µM (inactive) | > 100 µM (inactive) | > 100 µM (inactive) | – | > 100 µM (inactive) | > 100 µM (inactive) | > 100 µM (inactive) | > 100 µM (inactive) | > 100 µM (inactive) | – | > 100 µM (inactive) | > 100 µM (inactive) | –
9 | C=C1C(=O)O[C@@H]2[C@H](O)[C@@H](C)[C@@H]3C=CC(=O)[C@@]3(C)[C@H](OC(=O)C=C(C)C)[C@H]12 | 1.96 µM (inactive) | 0.625 µM (active) | 1.91 µM (inactive) | 0.255 µM (active) | – | – | 0.421 µM (active) | 1.04 µM (active) | – | 1.69 µM (inactive) | 0.655 µM (active) | 0.56 µM (active) | 1.32 µM (inactive) | 1.98 µM (inactive) | 2.8 µM (inactive) | – | 0.877 µM (active) | – | – | 0.277 µM (active)
10 | O=S(O)CCCCCSSSCCCCCS(=O)O | – | 22.8 µM (inactive) | > 100 µM (inactive) | 84.3 µM (inactive) | 43.7 µM (inactive) | – | – | 24.6 µM (inactive) | – | – | 15.5 µM (inactive) | – | 25.9 µM (inactive) | 52 µM (inactive) | – | – | 53.5 µM (inactive) | 3.48 µM (inactive) | 29 µM (inactive) | 35.4 µM (inactive)
11 | Nc1nc(=O)c2c([nH]1)NCC(CNc1ccc(C(=O)N[C@@H](CCC(=O)O)C(=O)O)cc1)N2C=O (some centres not stated) [LEUCOVORIN CALCIUM] | > 125 µM (inactive) | > 125 µM (inactive) | > 125 µM (inactive) | > 125 µM (inactive) | – | – | 121 µM (inactive) | > 125 µM (inactive) | – | > 125 µM (inactive) | > 125 µM (inactive) | > 125 µM (inactive) | 40.4 µM (inactive) | > 125 µM (inactive) | > 125 µM (inactive) | – | 14.8 µM (inactive) | – | – | > 125 µM (inactive)
12 | CCCCCCCCCCCCCCCCCCOP(=O)([O-])OCC[N+](C)(C)C [OCTADECYLPHOSPHONOCHOLINE] | 0.614 µM (active) | 4.4 µM (inactive) | 0.273 µM (active) | 1.2 µM (inactive) | – | – | 1.02 µM (active) | 0.836 µM (active) | < 0.0209 µM (active) | 1.42 µM (inactive) | 0.826 µM (active) | 0.382 µM (active) | 0.998 µM (active) | – | 0.736 µM (active) | – | 0.502 µM (active) | – | – | 4.7 µM (inactive)

— ChEMBL document CHEMBL1201862, “PubChem BioAssay data set” (2004)
